In the CheMixHub ionic liquid set:

Experiment: xn = mol fraction of the nth substance listed

CCCCCCCCCCCCCCCC[n+]1ccccc1.O=C([O-])c1ccccc1O + C[C@H](N)C(=O)O + O
electrical conductivity [S/m], 101 kPa
Conditions | 293.15 K | 298.15 K | 303.15 K | 308.15 K | 313.15 K
x2 = 0.0009002, x1 = 5.4e-07 | 0.00045 | 0.00051 | 0.000575 | 0.000646 | 0.000726
x2 = 0.0009002, x1 = 1.09e-06 | 0.000683 | 0.000777 | 0.000872 | 0.000975 | 0.00108
x2 = 0.0009002, x1 = 1.63e-06 | 0.000904 | 0.00102 | 0.00114 | 0.00127 | 0.00141
x2 = 0.0009002, x1 = 2.17e-06 | 0.00109 | 0.00123 | 0.00139 | 0.00155 | 0.00172
x2 = 0.0009002, x1 = 2.53e-06 | – | – | – | 0.00181 | 0.002
x2 = 0.0009002, x1 = 2.71e-06 | 0.00125 | 0.00144 | 0.00162 | – | –
x2 = 0.0009002, x1 = 3.07e-06 | 0.00137 | 0.00158 | 0.0018 | 0.00202 | 0.00228
x2 = 0.0009002, x1 = 3.62e-06 | 0.00148 | 0.0017 | 0.00195 | 0.00222 | 0.00249
x2 = 0.0009002, x1 = 3.98e-06 | 0.00159 | 0.00182 | 0.00208 | 0.00237 | 0.00267
x2 = 0.0009002, x1 = 4.52e-06 | 0.0017 | 0.00194 | 0.00222 | 0.00253 | 0.00286
x2 = 0.0009002, x1 = 4.88e-06 | 0.00181 | 0.00206 | 0.00235 | 0.00268 | 0.00303
x2 = 0.0009002, x1 = 5.43e-06 | 0.00191 | 0.00218 | 0.00248 | 0.00282 | 0.00319
x2 = 0.0009002, x1 = 5.79e-06 | 0.002 | 0.00228 | 0.0026 | 0.00295 | 0.00334
x2 = 0.0009002, x1 = 6.15e-06 | 0.0021 | 0.00239 | 0.00271 | 0.00308 | 0.00347
x2 = 0.0009002, x1 = 6.51e-06 | 0.00217 | 0.00247 | 0.0028 | 0.00318 | 0.0036
x2 = 0.0009002, x1 = 6.69e-06 | 0.00224 | 0.00255 | 0.00289 | 0.00327 | 0.00369
x2 = 0.001799, x1 = 3.6e-07 | 0.00047 | 0.000542 | 0.000625 | 0.000719 | 0.000829
x2 = 0.001799, x1 = 5.4e-07 | 0.000604 | 0.000697 | 0.000797 | 0.000911 | 0.00103
x2 = 0.001799, x1 = 9.1e-07 | 0.00073 | 0.000837 | 0.000953 | 0.00108 | 0.00123
x2 = 0.001799, x1 = 1.27e-06 | 0.000889 | 0.00102 | 0.00115 | 0.0013 | 0.00146
x2 = 0.001799, x1 = 1.63e-06 | 0.00104 | 0.00119 | 0.00134 | 0.00151 | 0.0017
x2 = 0.001799, x1 = 1.81e-06 | 0.00112 | 0.00128 | 0.00145 | 0.00163 | 0.00183
x2 = 0.001799, x1 = 2e-06 | 0.00121 | 0.00138 | 0.00156 | 0.00175 | 0.00196
x2 = 0.001799, x1 = 2.18e-06 | 0.00127 | 0.00145 | 0.00165 | 0.00186 | 0.00208
x2 = 0.001799, x1 = 2.36e-06 | – | – | 0.00177 | 0.00198 | 0.00222
x2 = 0.001799, x1 = 2.54e-06 | 0.00134 | 0.00155 | – | – | –
x2 = 0.001799, x1 = 2.72e-06 | 0.00142 | 0.00164 | 0.00188 | 0.00212 | 0.0024
x2 = 0.001799, x1 = 3.09e-06 | 0.00151 | 0.00174 | 0.002 | 0.00229 | 0.0026
x2 = 0.001799, x1 = 3.63e-06 | 0.00161 | 0.00186 | 0.00213 | 0.00244 | 0.00276
x2 = 0.001799, x1 = 3.99e-06 | 0.00173 | 0.00198 | 0.00227 | 0.0026 | 0.00296
x2 = 0.001799, x1 = 4.54e-06 | 0.00183 | 0.0021 | 0.0024 | 0.00275 | 0.00312
x2 = 0.001799, x1 = 4.9e-06 | 0.00192 | 0.0022 | 0.00251 | 0.00287 | 0.00326

O=C1CCCO1 + C[NH+](C)C.O=S(=O)([N-]S(=O)(=O)C(F)(F)F)C(F)(F)F
Conditions | viscosity [mPa·s]
333.15 K, 101 kPa, x1 = 1 | 1.08

CCCC[N+]1(C)CCCC1.O=S(=O)([N-]S(=O)(=O)C(F)(F)F)C(F)(F)F + Cc1ccccc1
viscosity [mPa·s], 100 kPa
Conditions | x2 = 0 | x2 = 0.3041 | x2 = 0.3965 | x2 = 0.5054 | x2 = 0.6027 | x2 = 0.7066
298.15 K | 70.1 | – | – | 14.96 | 10.08 | –
303.15 K | – | 25.03 | 18.66 | – | – | –
313.15 K | 37.99 | 18.55 | 14.35 | – | – | 4.73

O=C[C@H](O)[C@@H](O)[C@H](O)[C@H](O)CO + Cn1cc[n+](CCC[n+]2ccn(C)c2)c1.[Br-].[Br-] + O
101 kPa, x2 = 0, x1 = 0.001799
Conditions | viscosity [mPa·s]
293.15 K | 1.043
298.15 K | 0.927
303.15 K | 0.83
308.15 K | 0.754
313.15 K | 0.683

Fc1ccccn1 + Fc1cccc[nH+]1.O=S(=O)([O-])C(F)(F)F
100 kPa
Conditions | electrical conductivity [S/m]
242.8 K, x1 = 0.9 | 0.096
252.7 K, x1 = 0.9 | 0.144
262.8 K, x1 = 0.5 | 0.0069
282 K, x1 = 0.95 | 0.497
282.5 K, x1 = 0.5 | 0.023
282.5 K, x1 = 0.9 | 0.576
286.9 K, x1 = 0.95 | 0.564
292.7 K, x2 = 0.01 | 0.174
301.5 K, x1 = 0.9 | 0.75

C=CCn1cc[n+](C)c1.[I-] + II
Conditions | electrical conductivity [S/m]
298 K, 101.3 kPa, x1 = 0.25 | 4.21

CCCC[N+]1(C)CCCC1.N#C[N-]S(=O)(=O)C(F)(F)F + N#C[N-]S(=O)(=O)C(F)(F)F.[Li+]
101 kPa, frequency 0 MHz, x2 = 0
Conditions | electrical conductivity [S/m]
308 K | 0.644
313 K | 0.752

101 kPa, x2 = 0
Conditions | viscosity [mPa·s]
308 K | 33.6
313 K | 28.6

CCCCCCCCn1cc[n+](C)c1.F[B-](F)(F)F + NC(N)=O + O
298.15 K, 100 kPa
Conditions | viscosity [mPa·s]
x2 = 0, x3 = 0.9487 | 5.25
x2 = 0.008492, x3 = 0.9402 | 5.16
x2 = 0.01695, x3 = 0.9318 | 5.13
x2 = 0.03322, x3 = 0.9155 | 5.12
x2 = 0.0408, x3 = 0.9079 | 5.13

CCCCCCCCn1cc[n+](C)c1.[Br-] + NC(N)=O + O
298.15 K, 100 kPa
Conditions | viscosity [mPa·s]
x2 = 0, x3 = 0.9008 | 31.3
x2 = 0, x3 = 0.9487 | 7.96
x2 = 0.008063, x3 = 0.8927 | 31.3
x2 = 0.008505, x3 = 0.9402 | 7.68
x2 = 0.01609, x3 = 0.8847 | 31.2
x2 = 0.02499, x3 = 0.9237 | 7.49
x2 = 0.03154, x3 = 0.8693 | 30.7
x2 = 0.03316, x3 = 0.9155 | 7.32
x2 = 0.03874, x3 = 0.8621 | 30.7
x2 = 0.04082, x3 = 0.9079 | 7.14
